# From patent publication US11472811B2, “Pyrazolotriazolopyrimidine derivatives as A2A receptor antagonist” (BEIGENE, LTD., priority 2018, dated 2022)
# Target: human A2A receptor (A2AR) (Homo sapiens (Human), UniProt P29274)
# Assay: Luciferase reporter assay (HEK293-A2AR-luc2p/CRE/Hygro cells)
# Format: cell-based
# Conditions: 3 nM CGS21680, 5 h incubation
# How it was run: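 Antagonism was scored as inhibition of CRE-luciferase signal driven by 3 nM CGS21680 (=100%) during a 5 h treatment with compound at 0.1–10000 nM. The line was HEK293 stably carrying human A2AR and luc2P/CRE, preincubated 18 h in 1% FBS containing 1 U/mL ADA. IC50 came from the dose-response curve.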
# Sequence of human A2A receptor (A2AR) (P29274 whole entry): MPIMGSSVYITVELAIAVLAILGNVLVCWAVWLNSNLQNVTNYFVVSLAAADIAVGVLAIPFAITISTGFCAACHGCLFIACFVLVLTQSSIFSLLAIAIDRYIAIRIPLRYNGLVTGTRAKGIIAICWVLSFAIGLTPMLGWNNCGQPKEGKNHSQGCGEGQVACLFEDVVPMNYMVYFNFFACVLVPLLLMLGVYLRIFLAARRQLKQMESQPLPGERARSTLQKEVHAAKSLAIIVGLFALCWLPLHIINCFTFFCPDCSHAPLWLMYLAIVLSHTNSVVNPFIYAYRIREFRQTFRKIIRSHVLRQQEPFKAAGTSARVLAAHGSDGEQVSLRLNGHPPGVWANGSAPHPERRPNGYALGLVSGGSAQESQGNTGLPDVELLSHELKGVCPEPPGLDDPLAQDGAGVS
row,IC50,SMILES
1,0.7 nM,"Cc1ccc(CNC(=O)[C@@](C)(c2ccccc2)n2ncc3c2nc(N)n2nc(-c4ccco4)nc32)nc1 [Example 109B, (R)-2-(5-amino-2-(furan-2-yl)-7H-pyrazolo[4,3-e][1,2,4]triazolo[1,5-c]pyrimidin-7-yl)-N-((5-methylpyridin-2-yl)methyl)-2-phenylpropanamide]"
2,2.4 nM,"Cc1ccnc(CNC(=O)C(C)(c2ccccc2)n2ncc3c2nc(N)n2nc(-c4ccco4)nc32)c1 (stereo not shown) [Example 110, 2-(5-amino-2-(furan-2-yl)-7H-pyrazolo[4,3-e][1,2,4]triazolo[1,5-c]pyrimidin-7-yl)-N-((4-methylpyridin-2-yl)methyl)-2-phenylpropanamide]"
3,2.9 nM,"Cc1ccnc(CNC(=O)[C@@](C)(c2ccccc2)n2ncc3c2nc(N)n2nc(-c4ccco4)nc32)c1 [Example 110B, (R)-2-(5-amino-2-(furan-2-yl)-7H-pyrazolo[4,3-e][1,2,4]triazolo[1,5-c]pyrimidin-7-yl)-N-((4-methylpyridin-2-yl)methyl)-2-phenylpropanamide]"
4,0.6 nM,"Cc1cccnc1CNC(=O)C(C)(c1ccccc1)n1ncc2c1nc(N)n1nc(-c3ccco3)nc21 (stereo not shown) [Example 111, 2-(5-amino-2-(furan-2-yl)-7H-pyrazolo[4,3-e][1,2,4]triazolo[1,5-c]pyrimidin-7-yl)-N-((3-methylpyridin-2-yl)methyl)-2-phenylpropanamide]"
5,0.5 nM,"Cc1cccnc1CNC(=O)[C@@](C)(c1ccccc1)n1ncc2c1nc(N)n1nc(-c3ccco3)nc21 [Example 111B, (R)-2-(5-amino-2-(furan-2-yl)-7H-pyrazolo[4,3-e][1,2,4]triazolo[1,5-c]pyrimidin-7-yl)-N-((3-methylpyridin-2-yl)methyl)-2-phenylpropanamide]"
6,4.1 nM,"COc1cccc(CNC(=O)C(C)(c2ccccc2)n2ncc3c2nc(N)n2nc(-c4ccco4)nc32)n1 (stereo not shown) [Example 112, 2-(5-amino-2-(furan-2-yl)-7H-pyrazolo[4,3-e][1,2,4]triazolo[1,5-c]pyrimidin-7-yl)-N-((6-methoxypyridin-2-yl)methyl)-2-phenylpropanamide]"
7,1.2 nM,"COc1cccc(CNC(=O)[C@@](C)(c2ccccc2)n2ncc3c2nc(N)n2nc(-c4ccco4)nc32)n1 [Example 112B, (R)-2-(5-amino-2-(furan-2-yl)-7H-pyrazolo[4,3-e][1,2,4]triazolo[1,5-c]pyrimidin-7-yl)-N-((6-methoxypyridin-2-yl)methyl)-2-phenylpropanamide]"
8,0.9 nM,"COc1ccc(CNC(=O)[C@@](C)(c2ccccc2)n2ncc3c2nc(N)n2nc(-c4ccco4)nc32)nc1 [Example 113B, (R)-2-(5-amino-2-(furan-2-yl)-7H-pyrazolo[4,3-e][1,2,4]triazolo[1,5-c]pyrimidin-7-yl)-N-((5-methoxypyridin-2-yl)methyl)-2-phenylpropanamide]"
9,3.3 nM,"COc1ccnc(CNC(=O)C(C)(c2ccccc2)n2ncc3c2nc(N)n2nc(-c4ccco4)nc32)c1 (stereo not shown) [Example 114, 2-(5-amino-2-(furan-2-yl)-7H-pyrazolo[4,3-e][1,2,4]triazolo[1,5-c]pyrimidin-7-yl)-N-((4-methoxypyridin-2-yl)methyl)-2-phenylpropanamide]"
10,4.6 nM,"COc1ccnc(CNC(=O)[C@@](C)(c2ccccc2)n2ncc3c2nc(N)n2nc(-c4ccco4)nc32)c1 [Example 114B, (R)-2-(5-amino-2-(furan-2-yl)-7H-pyrazolo[4,3-e][1,2,4]triazolo[1,5-c]pyrimidin-7-yl)-N-((4-methoxypyridin-2-yl)methyl)-2-phenylpropanamide]"
11,1.9 nM,"COc1cccnc1CNC(=O)C(C)(c1ccccc1)n1ncc2c1nc(N)n1nc(-c3ccco3)nc21 (stereo not shown) [Example 115, 2-(5-amino-2-(furan-2-yl)-7H-pyrazolo[4,3-e][1,2,4]triazolo[1,5-c]pyrimidin-7-yl)-N-((3-methoxypyridin-2-yl)methyl)-2-phenylpropanamide]"
12,3.3 nM,"COc1cccnc1CNC(=O)[C@@](C)(c1ccccc1)n1ncc2c1nc(N)n1nc(-c3ccco3)nc21 [Example 115B, (R)-2-(5-amino-2-(furan-2-yl)-7H-pyrazolo[4,3-e][1,2,4]triazolo[1,5-c]pyrimidin-7-yl)-N-((3-methoxypyridin-2-yl)methyl)-2-phenylpropanamide]"
13,2.2 nM,"CC(C(=O)NCc1cccc(F)n1)(c1ccccc1)n1ncc2c1nc(N)n1nc(-c3ccco3)nc21 (stereo not shown) [Example 116, 2-(5-amino-2-(furan-2-yl)-7H-pyrazolo[4,3-e][1,2,4]triazolo[1,5-c]pyrimidin-7-yl)-N-((6-fluoropyridin-2-yl)methyl)-2-phenylpropanamide]"
14,3.4 nM,"CC(C(=O)NCc1ccc(F)cn1)(c1ccccc1)n1ncc2c1nc(N)n1nc(-c3ccco3)nc21 (stereo not shown) [Example 117, 2-(5-amino-2-(furan-2-yl)-7H-pyrazolo[4,3-e][1,2,4]triazolo[1,5-c]pyrimidin-7-yl)-N-((5-fluoropyridin-2-yl)methyl)-2-phenylpropanamide]"
15,3.2 nM,"C[C@](C(=O)NCc1ccc(F)cn1)(c1ccccc1)n1ncc2c1nc(N)n1nc(-c3ccco3)nc21 [Example 117B, (R)-2-(5-amino-2-(furan-2-yl)-7H-pyrazolo[4,3-e][1,2,4]triazolo[1,5-c]pyrimidin-7-yl)-N-((5-fluoropyridin-2-yl)methyl)-2-phenylpropanamide]"
16,7.2 nM,"CC(C(=O)NCc1cc(F)ccn1)(c1ccccc1)n1ncc2c1nc(N)n1nc(-c3ccco3)nc21 (stereo not shown) [Example 118, 2-(5-amino-2-(furan-2-yl)-7H-pyrazolo[4,3-e][1,2,4]triazolo[1,5-c]pyrimidin-7-yl)-N-((4-fluoropyridin-2-yl)methyl)-2-phenylpropanamide]"
17,6 nM,"C[C@](C(=O)NCc1cc(F)ccn1)(c1ccccc1)n1ncc2c1nc(N)n1nc(-c3ccco3)nc21 [Example 118B, (R)-2-(5-amino-2-(furan-2-yl)-7H-pyrazolo[4,3-e][1,2,4]triazolo[1,5-c]pyrimidin-7-yl)-N-((4-fluoropyridin-2-yl)methyl)-2-phenylpropanamide]"
18,3.2 nM,"CC(C(=O)NCc1ncccc1F)(c1ccccc1)n1ncc2c1nc(N)n1nc(-c3ccco3)nc21 (stereo not shown) [Example 119, 2-(5-amino-2-(furan-2-yl)-7H-pyrazolo[4,3-e][1,2,4]triazolo[1,5-c]pyrimidin-7-yl)-N-((3-fluoropyridin-2-yl)methyl)-2-phenylpropanamide]"
19,2 nM,"C[C@](C(=O)NCc1ncccc1F)(c1ccccc1)n1ncc2c1nc(N)n1nc(-c3ccco3)nc21 [Example 119B, (R)-2-(5-amino-2-(furan-2-yl)-7H-pyrazolo[4,3-e][1,2,4]triazolo[1,5-c]pyrimidin-7-yl)-N-((3-fluoropyridin-2-yl)methyl)-2-phenylpropanamide]"
20,8.5 nM,"CC(C(=O)N[C@H]1CCC[C@@H](O)C1)(c1ccccc1)n1ncc2c1nc(N)n1nc(-c3ccco3)nc21 (stereo partly drawn) [Example 123, 2-(5-amino-2-(furan-2-yl)-7H-pyrazolo[4,3-e][1,2,4]triazolo[1,5-c]pyrimidin-7-yl)-N-((1S,3R)-3-hydroxycyclohexyl)-2-phenylpropanamide]"
21,12.8 nM,"CC(C(=O)NC1CCC(=O)CC1)(c1ccccc1)n1ncc2c1nc(N)n1nc(-c3ccco3)nc21 (stereo not shown) [Example 128, 2-(5-amino-2-(furan-2-yl)-7H-pyrazolo[4,3-e][1,2,4]triazolo[1,5-c]pyrimidin-7-yl)-N-(4-oxocyclohexyl)-2-phenylpropanamide]"
22,7.6 nM,"C[C@](C(=O)NC1CCC(=O)CC1)(c1ccccc1)n1ncc2c1nc(N)n1nc(-c3ccco3)nc21 [Example 128B, (R)-2-(5-amino-2-(furan-2-yl)-7H-pyrazolo[4,3-e][1,2,4]triazolo[1,5-c]pyrimidin-7-yl)-N-(4-oxocyclohexyl)-2-phenylpropanamide]"
23,6.9 nM,"CC(C(=O)NCc1cccc(C2(O)CCC2)n1)(c1ccccc1)n1ncc2c1nc(N)n1nc(-c3ccco3)nc21 (stereo not shown) [Example 130, 2-(5-amino-2-(furan-2-yl)-7H-pyrazolo[4,3-e][1,2,4]triazolo[1,5-c]pyrimidin-7-yl)-N-((6-(1-hydroxycyclobutyl)pyridin-2-yl)methyl)-2-phenylpropanamide]"
24,15.7 nM,"CC(Cc1ccccc1)(C(=O)NCC1(O)COC1)n1ncc2c1nc(N)n1nc(-c3ccco3)nc21 (stereo not shown) [Example 132, 2-(5-amino-2-(furan-2-yl)-7H-pyrazolo[4,3-e][1,2,4]triazolo[1,5-c]pyrimidin-7-yl)-N-((3-hydroxyoxetan-3-yl)methyl)-2-methyl-3-phenylpropanamide]"
25,15 nM,"CC(C(=O)NCC1(O)COC1)(c1ccccc1)n1ncc2c1nc(N)n1nc(-c3nccs3)nc21 (stereo not shown) [Example 133, 2-(5-amino-2-(thiazol-2-yl)-7H-pyrazolo[4,3-e][1,2,4]triazolo[1,5-c]pyrimidin-7-yl)-N-((3-hydroxyoxetan-3-yl)methyl)-2-phenylpropanamide]"
26,11.2 nM,"CC(C(=O)N[C@@H]1CC[C@H](O)C1)(c1ccccc1)n1ncc2c1nc(N)n1nc(-c3ccco3)nc21 (stereo partly drawn) [Example 135, 2-(5-amino-2-(furan-2-yl)-7H-pyrazolo[4,3-e][1,2,4]triazolo[1,5-c]pyrimidin-7-yl)-N-((1R,3S)-3-hydroxycyclopentyl)-2-phenylpropanamide]"
27,7.9 nM,"CC(C(=O)N[C@H]1CC[C@@H](O)C1)(c1ccccc1)n1ncc2c1nc(N)n1nc(-c3ccco3)nc21 (stereo partly drawn) [Example 136, 2-(5-amino-2-(furan-2-yl)-7H-pyrazolo[4,3-e][1,2,4]triazolo[1,5-c]pyrimidin-7-yl)-N-((1S,3R)-3-hydroxycyclopentyl)-2-phenylpropanamide]"
28,13 nM,"COc1cccc(C(C)(C(=O)NCC2(O)COC2)n2ncc3c2nc(N)n2nc(-c4ccco4)nc32)c1 (stereo not shown) [Example 137, 2-(5-amino-2-(furan-2-yl)-7H-pyrazolo[4,3-e][1,2,4]triazolo[1,5-c]pyrimidin-7-yl)-N-((3-hydroxyoxetan-3-yl)methyl)-2-(3-methoxyphenyl)propanamide]"
